Patent US11801309B2, “Carbohydrate-functionalized nanoparticles and uses thereof” (VIRGINIA COMMONWEALTH UNIVERSITY INTELLECTUAL PROPERTY …, priority 2016, dated 2023)

Tests used:
[1] = system: LXR target genes (FAS and SREBP1) in hepatocytes; experiment: Expression of LXR target genes in hepatocytes (QPCR); format: cell-based, mouse; conditions: 0.2 μM, 24 h
Protocol: FIG. 6A-6D. mDNP-LXR-L delivered LXR ligand appropriately increases gene expression leading to increased FC efflux. FIGS. 6A and 6B: MPMs (FIG. 6A) or Primary hepatocytes (FIG. 6B) were plated in 6-well culture dishes and incubated with either LXR ligand T0901317 or mDNP or mDNP-LXR-L (0.2 μM) for 24 h; untreated cells were used as Controls. Expression of LXR target genes (ABCA1 and ABCG1 in MPMs and FAS and SREBP1 in hepatocytes) was evaluated by QPCR using total RNA as described under “Methods”. Data (Mean±SD, n=3) are expressed as fold increase over Controls. FIG. 6C: MPMs were plated in 6-well plates were exposed to either LXR ligand T0901317 or mDNP or mDNP-LXR-L (0.2 μM) for 24 h. Cells were washed once with cold PBS and harvested in cold buffer on ice as described under “Methods”. Following disruption of cells by sonication and removal of cell debris, CEH activity was measured using a radiometric assay. CEH activity (Mean±SD, n=3) is expressed as % untreated Controls. FIG. 6D: MPMs, plated in 24-well plate, were loaded and labeled with [^3H]-cholesterol as described under “Methods”. During the 24 h equilibration, cells were exposed to either LXR ligand T0901317 or mDNP or mDNP-LXR-L (0.2 μM). FC efflux to medium containing 10% FBS was monitored for 8 and 24 h. Data (Mean±SD, n=6) are expressed as % efflux. *P<0.05 and NS—not significant. […]

[2] = system: atherosclerotic plaque volume in patients; conditions: randomized controlled trial; cited from earlier work

O=S(=O)(c1ccccc1)N(CC(F)(F)F)c1ccc(C(O)(C(F)(F)F)C(F)(F)F)cc1 [free LXR-L, T0901317]
expression of FAS and SREBP1 [1]: significant increase

B1: Evolocumab (antibody, chains of the INN, looked up, V domains shown)
VH: EVQLVQSGAEVKKPGASVKVSCKASGYTLTSYGISWVRQAPGQGLEWMGWVSFYNGNTNYAQKLQGRGTMTTDPSTSTAYMELRSLRSDDTAVYYCARGYGMDVWGQGTTVTVSS
VL: ESALTQPASVSGSPGQSITISCTGTSSDVGGYNSVSWYQQHPGKAPKLMIYEVSNRPSGVSNRFSGSKSGNTASLTISGLQAEDEADYYCNSYTSTSMVFGGGTKLTVL
decrease in atheroma volume [2]: 0.95%
